This note sets out measurements from US8455475B2 (Gruenenthal GmbH, priority 2009, dated 2013).

This assay has as its target T1, rat B1R (bradykinin receptor 1) (Rattus norvegicus, UniProt P97583).
T1 construct: expressed in transfected cells; host or cells: CHO K1 cells
T1 sequence (P97583 1-337): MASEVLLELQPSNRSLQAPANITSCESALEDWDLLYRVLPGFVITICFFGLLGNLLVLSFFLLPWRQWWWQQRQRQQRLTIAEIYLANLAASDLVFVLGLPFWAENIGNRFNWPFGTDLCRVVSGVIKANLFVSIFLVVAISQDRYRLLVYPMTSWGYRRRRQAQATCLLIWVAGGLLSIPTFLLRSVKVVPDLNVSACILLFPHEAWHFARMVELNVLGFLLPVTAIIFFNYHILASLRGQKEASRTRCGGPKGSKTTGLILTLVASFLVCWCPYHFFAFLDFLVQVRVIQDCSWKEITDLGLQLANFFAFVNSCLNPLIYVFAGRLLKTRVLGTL
The experiment in a line: FLIPR Ca2+ assay (Fluo-4) on CHO K1 cells stably transfected with the B1R gene of the rat (rB1R cells): % inhibition at 10 μM / IC50, agonist Des-Arg9-bradykinin. It is filed as cell-based. To be noted: CHO-K1, rat B1R. An outline of the steps:
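Loading with Fluo-4 occurs for 60 min at 37 °C, or alternatively in buffer A, before FLIPR measurement. Compounds are applied, incubated 10–20 min, and then the EC80 agonist is added. Antagonism appears as reduced peak Ca2+ signal relative to maximal inhibition.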
Consider `O=C(NC1CCc2ccc(C(=O)N3CCC4(CCN(Cc5ccc(F)c(F)c5)CC4)C3)cc21)c1cc(C(F)(F)F)ccc1Cl` (stereo not shown) [IND_CC-633, 2-Chloro-N-[6-[8-[(3,4-difluoro-phenyl)-methyl]-2,8-diazaspiro[4.5]decane-2-carbonyl]-2,3-dihydro-1H-inden-1-yl]-5-(trifluoromethyl)-benzamide], for which the inhibition at 10 µM came out at 86%.
As for `Cc1cc(C(=O)N2CCC3(CCN(C(=O)c4ccc5c(c4)C(NC(=O)c4ccccc4Cl)CC5)C3)CC2)n(C(C)(C)C)n1` (stereo not shown) [IND_CC-579, N-[6-[8-(2-tert-Butyl-5-methyl-2H-pyrazole-3-carbonyl)-2,8-diazaspiro-[4.5]decane-2-carbonyl]-2,3-dihydro-1H-inden-1-yl]-2-chloro-benzamide], the figure is 57%; as for `Cc1cccc(Cl)c1C(=O)NC1CCc2ccc(C(=O)N3CCC4(CCN(Cc5ccc6nccnc6c5)CC4)C3)cc21` (stereo not shown) [IND_CC-765, 2-Chloro-6-methyl-N-[6-[8-(quinoxalin-6-yl-methyl)-2,8-diazaspiro[4.5]-decane-2-carbonyl]-2,3-dihydro-1H-inden-1-yl]-benzamide], 105%.
For the compound `CN(C1CCc2ccc(C(=O)N3CCC4(CC3)CCN(c3ccncc3)CC4)cc21)S(=O)(=O)Cc1ccccc1F` (stereo not shown) [IND_CC-348, 1-(2-Fluorophenyl)-N-methyl-N-[6-(9-pyridin-4-yl-3,9-diazaspiro[5.5]undecane-3-carbonyl)-2,3-dihydro-1H-inden-1-yl]-methanesulfonic acid amide], the inhibition at 10 µM worked out at 102%.
For the compound `O=C(c1ccc2c(c1)C(N(C(=O)c1ccccc1Cl)C1CC1)CC2)N1CCC2(CCN(Cc3cc(F)ccc3F)CC2)C1` (stereo not shown) [IND_CC-522, 2-Chloro-N-cyclopropyl-N-[6-[8-[(2,5-difluoro-phenyl)-methyl]-2,8-diazaspiro[4.5]decane-2-carbonyl]-2,3-dihydro-1H-inden-1-yl]-benzamide], the inhibition at 10 µM is 55%.
`CC1(C)Cc2ccc(C(=O)N3CCC4(CC3)CCN(c3ccncc3)CC4)cc2C1NS(=O)(=O)c1ccccc1Cl` (stereo not shown) [IND_CC-336, 2-Chloro-N-[2,2-dimethyl-6-(9-pyridin-4-yl-3,9-diazaspiro[5.5]undecane-3-carbonyl)-1,3-dihydro-inden-1-yl]-benzenesulfonic acid amide]: the inhibition at 10 µM came to 103%.
As for `N#Cc1ccccc1S(=O)(=O)N1CCC2(CCN(C(=O)c3ccc4c(c3)C(N(C(=O)c3ccccc3Cl)C3CC3)CC4)C2)CC1` (stereo not shown) [IND_CC-618, 2-Chloro-N-[6-[8-[(2-cyano-phenyl)sulfonyl]-2,8-diazaspiro[4.5]decane-2-carbonyl]-2,3-dihydro-1H-inden-1-yl]-N-cyclopropyl-benzamide], the figure is 61%; as for `Cc1noc(C)c1CN1CCC2(CC1)CCN(C(=O)c1ccc3c(c1)C(NC(=O)c1c(F)cccc1Cl)CC3)CC2` (stereo not shown) [IND_CC-799, 2-Chloro-N-[6-[9-[(3,5-dimethyl-isoxazol-4-yl)-methyl]-3,9-diazaspiro-[5.5]undecane-3-carbonyl]-2,3-dihydro-1H-inden-1-yl]-6-fluoro-benzamide], 52%.
Turning to `N#Cc1ccc(CN2CCC3(CC2)CCN(C(=O)c2ccc4c(c2)C(NC(=O)c2cc(C(F)(F)F)ccc2Cl)CC4)C3)cc1` (stereo not shown) [IND_CC-658, 2-Chloro-N-[6-[8-[(4-cyano-phenyl)-methyl]-2,8-diazaspiro[4.5]decane-2-carbonyl]-2,3-dihydro-1H-inden-1-yl]-5-(trifluoromethyl)-benzamide], the inhibition at 10 µM worked out at 51%.
In the case of `Cn1ccc2cc(S(=O)(=O)N3CCC4(CCN(C(=O)c5ccc6c(c5)C(NC(=O)c5ccccc5Cl)CC6)CC4)CC3)ccc21` (stereo not shown) [IND_CC-614, 2-Chloro-N-[6-[9-[(1-methyl-1H-indol-5-yl)sulfonyl]-3,9-diazaspiro[5.5]undecane-3-carbonyl]-2,3-dihydro-1H-inden-1-yl]-benzamide], the inhibition at 10 µM came to 67%.
As to `CN(C1CCc2ccc(C(=O)N3CCC4(CC3)CCN(c3ccncc3)CC4)cc21)S(=O)(=O)c1cccc(C(F)(F)F)c1` (stereo not shown) [IND_CC-327, N-Methyl-N-[6-(9-pyridin-4-yl-3,9-diazaspiro[5.5]undecane-3-carbonyl)-2,3-dihydro-1H-inden-1-yl]-3-(trifluoromethyl)-benzenesulfonic acid amide], the inhibition at 10 µM is 101%.
As for `Cc1cccc(Cl)c1C(=O)NC1CCc2ccc(C(=O)N3CCC4(CCN(CCCc5ccc(F)cc5)CC4)C3)cc21` (stereo not shown) [IND_CC-771, 2-Chloro-N-[6-[8-[3-(4-fluorophenyl)-propyl]-2,8-diazaspiro[4.5]decane-2-carbonyl]-2,3-dihydro-1H-inden-1-yl]-6-methyl-benzamide], the inhibition at 10 µM amounted to 108%.
Regarding `CN(C(=O)c1ccccc1Cl)C1CCc2ccc(C(=O)N3CCC4(CCN(Cc5cc(F)ccc5F)CC4)C3)cc21` (stereo not shown) [IND_CC-550, 2-Chloro-N-[6-[8-[(2,5-difluoro-phenyl)-methyl]-2,8-diazaspiro[4.5]decane-2-carbonyl]-2,3-dihydro-1H-inden-1-yl]-N-methyl-benzamide], the inhibition at 10 µM is 62%.
Take `CCCNC(=O)N1CCC2(CC1)CCN(C(=O)c1ccc3c(c1)C(N(C(=O)c1ccccc1Cl)C1CC1)CC3)C2` (stereo not shown) [IND_CC-712, 2-[3-[(2-Chloro-benzoyl)-cyclopropyl-amino]-2,3-dihydro-1H-indene-5-carbonyl]-N-propyl-2,8-diazaspiro[4.5]decane-8-carboxylic acid amide]: the inhibition at 10 µM came out at 76%.
In the case of `CN(C(=O)c1ccccc1Cl)C1CCc2ccc(C(=O)N3CCC4(CCN(C(=O)C5CC5)CC4)C3)cc21` (stereo not shown) [IND_CC-589, 2-Chloro-N-[6-[8-(cyclopropanecarbonyl)-2,8-diazaspiro[4.5]decane-2-carbonyl]-2,3-dihydro-1H-inden-1-yl]-N-methyl-benzamide] it was 81%.
Turning to `O=C(NC1CCc2ccc(C(=O)N3CCC4(CCN(Cc5csnn5)CC4)CC3)cc21)c1c(F)cccc1Cl` (stereo not shown) [IND_CC-797, 2-Chloro-6-fluoro-N-[6-[9-([1,2,3]thiadiazol-4-yl-methyl)-3,9-diazaspiro[5.5]undecane-3-carbonyl]-2,3-dihydro-1H-inden-1-yl]-benzamide], the inhibition at 10 µM was 91%.
In the case of `CCCNC(=O)N1CCC2(CC1)CCN(C(=O)c1ccc3c(c1)C(NC(=O)c1ccccc1Cl)CC3)CC2` (stereo not shown) [IND_CC-704, 3-[3-[(2-Chloro-benzoyl)amino]-2,3-dihydro-1H-indene-5-carbonyl]-N-propyl-3,9-diazaspiro[5.5]undecane-9-carboxylic acid amide] it was 91%; in that of `Cc1cc(F)ccc1S(=O)(=O)NC1CC(C)(C)c2ccc(C(=O)N3CCC4(CC3)CCN(c3ccncc3)CC4)cc21` (stereo not shown) [IND_CC-339, N-[3,3-Dimethyl-6-(3-pyridin-4-yl-3,9-diazaspiro[5.5]undecane-9-carbonyl)-1,2-dihydro-inden-1-yl]-4-fluoro-2-methyl-benzenesulfonic acid amide], 103%.
Regarding `O=C(NC1CCc2ccc(C(=O)N3CCC4(CCN(Cc5c(F)cccc5Cl)CC4)CC3)cc21)c1c(F)cccc1Cl` (stereo not shown) [IND_CC-803, 2-Chloro-N-[6-[9-[(2-chloro-6-fluoro-phenyl)-methyl]-3,9-diazaspiro-[5.5]undecane-3-carbonyl]-2,3-dihydro-1H-inden-1-yl]-6-fluoro-benzamide], the inhibition at 10 µM was determined as 76%.
Take `CC1(C)CC(NS(=O)(=O)c2ccccc2Cl)c2cc(C(=O)N3CCC4(CC3)CCN(c3ccncc3)CC4)ccc21` (stereo not shown) [IND_CC-337, 2-Chloro-N-[3,3-dimethyl-6-(3-pyridin-4-yl-3,9-diazaspiro[5.5]undecane-9-carbonyl)-1,2-dihydro-inden-1-yl]-benzenesulfonic acid amide]: the inhibition at 10 µM was found to be 104%.
Take `O=C(NC1CCc2ccc(C(=O)N3CCC4(CCN(C(=O)c5ccc(F)cc5Cl)CC4)C3)cc21)c1ccccc1Cl` (stereo not shown) [IND_CC-575, 2-Chloro-N-[6-[8-(2-chloro-4-fluoro-benzoyl)-2,8-diazaspiro[4.5]decane-2-carbonyl]-2,3-dihydro-1H-inden-1-yl]-benzamide]: the inhibition at 10 µM came to 78%.
Turning to `N#Cc1cccc(CN2CCC3(CC2)CCN(C(=O)c2ccc4c(c2)C(N(C(=O)c2ccccc2Cl)C2CC2)CC4)C3)c1` (stereo not shown) [IND_CC-540, 2-Chloro-N-[6-[8-[(3-cyano-phenyl)-methyl]-2,8-diazaspiro[4.5]decane-2-carbonyl]-2,3-dihydro-1H-inden-1-yl]-N-cyclopropyl-benzamide], the inhibition at 10 µM came to 82%.
With `O=C(c1ccc2c(c1)C(NS(=O)(=O)Cc1cccc(Cl)c1)CC2)N1CCC2(CC1)CCN(c1ccncc1)CC2` (stereo not shown) [IND_CC-352, 1-(3-Chlorophenyl)-N-[6-(9-pyridin-4-yl-3,9-diazaspiro[5.5]undecane-3-carbonyl)-2,3-dihydro-1H-inden-1-yl]-methanesulfonic acid amide], the inhibition at 10 µM is 98%.
Consider `CN(C(=O)c1ccccc1Cl)C1CCc2ccc(C(=O)N3CCC4(CCN(Cc5c(F)cccc5Cl)CC4)C3)cc21` (stereo not shown) [IND_CC-558, 2-Chloro-N-[6-[8-[(2-chloro-6-fluoro-phenyl)-methyl]-2,8-diazaspiro[4.5]-decane-2-carbonyl]-2,3-dihydro-1H-inden-1-yl]-N-methyl-benzamide], for which the inhibition at 10 µM came out at 62%.
In the case of `CC(C)C(=O)N(C)C1CCc2ccc(C(=O)N3CCC4(CC3)CCN(c3ccncc3)CC4)cc21` (stereo not shown) [IND_CC-418, N,2-Dimethyl-N-[6-(9-pyridin-4-yl-3,9-diazaspiro[5.5]undecane-3-carbonyl)-2,3-dihydro-1H-inden-1-yl]-propionamide] it was 99%.

For orientation: inhibition means the change of the read-out against control, counted positive when it falls.
